{"source": "patent US6458773B1", "about": "“Nucleoside with anti-hepatitis B virus activity” (Emory University, priority 1998, dated 2002)", "key": {"HBV": {"test_system": "HBV", "assay": "Anti-HBV activity in transfected 2.2.15 cells (HBV DNA replication intermediates, blot hybridization)", "assay_type": "cell-based, hepatitis B virus", "details": "read-out: EC50 (μM) R.I.", "description": "The antiviral evaluations were performed on two separate passages of cells, two cultures per passage (4 cultures total). All wells, in all plates, were seeded at the same density and at the same time.\nDue to the inherent variations in the levels of both intracellular and extracellular HBV DNA, only depressions greater than 3.0-fold (for HBV virion DNA) or 2.5-fold (for HBV DNA replication intermediates) from the average levels for these HBV DNA forms in untreated cells are generally considered to be statistically significant [P<0.05] (Korba and Gerin, Antiviral Res. 19: 55-70, 1992). The levels of integrated HBV DNA in each cellular DNA preparation (which remain constant on a per cell basis in these experiments) were used to calculate the levels of intracellular HBV DNA forms, thereby eliminating technical variations inherent in the blot hybridization assays.\nTypical values for extracellular HBV virion DNA in untreated cells range from 50 to 150 pg/ml culture medium (average of approximately 76 pg/ml). Intracellular HBV DNA replication intermediates in untreated cells range from 50 to 100 pg/ug cell DNA (average approximately 74 pg/ug cell DNA). In general, depressions in the levels of intracellular HBV DNA due to treatment with antiviral compounds are less pronounced, and occur more slowly, than depressions in the levels of HBV virion DNA.\nFor reference, the manner in which the hybridization analyses were performed for these experiments results in an equivalence of approximately 1.0 pg intracellular HBV DNA/ug cellular DNA to 2-3 genomic copies per cell and 1.0 pg of extracellular HBV DNA/ml culture medium to 3×10^5 viral particles/ml.\nThe test compounds were used in the form of stock solutions in DMSO (frozen on dry ice). Daily aliquots of the test samples were made and frozen at −20° C. so that each individual aliquot would be subjected to a single freeze-thaw cycle. The daily test aliquots were thawed, suspended into culture medium at room temperature and immediately added to the cell cultures.\nThe ability of the active compounds to inhibit the growth of virus in 2.2.15 cell cultures (HepG2 cells transformed with hepatitis virion) was evaluated."}, "Normal Hep G2 cells [1]": {"test_system": "Normal Hep G2 cells", "assay": "Cytotoxicity by uptake of neutral red dye", "assay_type": "cell-based", "description": "(§1) Toxicity analyses were performed in order to assess whether any observed antiviral effects were due to a general effect on cell viability. This can be assessed by the uptake of neutral red dye, a standard and widely used assay for cell viability in a variety of virus-host systems, including HSV (herpes simplex virus) and HIV.\n(§2) Toxicity analyses were performed in 96-well flat bottomed tissue culture plates. Cells for the toxicity analyses were cultured and treated with test compounds with the same schedule as used for the antiviral evaluations. Each compound was tested at 4 concentrations, each in triplicate cultures. Uptake of neutral red dye was used to determine the relative level of toxicity. The absorbance of internalized dye at […] (A510) was used for the quantitative analysis. Values are presented as a percentage of the average A510 values (±standard deviations) in 9 separate cultures of untreated cells maintained on the same 96-well plate as the test compounds."}, "BFU-E": {"test_system": "BFU-E", "assay": "Human bone marrow clonogenic assay, BFU-E", "assay_type": "cell-based", "details": "effect on cell growth"}, "CFU-GM": {"test_system": "CFU-GM", "assay": "Human bone marrow clonogenic assay, CFU-GM", "assay_type": "cell-based", "details": "effect on cell growth"}, "Normal Hep G2 cells [2]": {"test_system": "Normal Hep G2 cells", "details": "neutral red dye uptake; typically observed in these assays (Korba and Gerin 1992); cited from earlier work"}, "[3]": {"assay": "Cytotoxicity by uptake of neutral red dye", "assay_type": "cell-based", "details": "human, Normal Hep G2 cells", "description": "as §1, §2"}, "[4]": {"details": "Transfected 2.2.15 cells, HBV DNA replication intermediates (R.I.)"}}, "note": "Like-named read-outs stand apart in the source and are kept apart here."}
{"smiles": "Nc1ccn([C@@H]2CS[C@H](CO)O2)c(=O)n1", "note": "(single isomer, unassigned) [Lamivudine (3TC), (−)-enantiomer of cis-2-hydroxymethyl-5-(cytosin-1-yl)-1,3-oxathiolane]", "values": [{"measurement": "EC50", "setting": "HBV; [4]", "value": 0.03, "unit": "µM"}]}
{"smiles": "Nc1nc(=O)n([C@H]2CC[C@@H](CO)O2)cc1F", "note": "[Compound L-5-FddC]", "values": [{"measurement": "CC50", "setting": "Normal Hep G2 cells [1]", "value": "> 200", "unit": "µM"}, {"measurement": "EC50", "setting": "BFU-E", "value": 1800, "unit": "nM"}, {"measurement": "EC50", "setting": "HBV; [4]", "value": 0.05, "unit": "µM"}, {"measurement": "EC50", "setting": "CFU-GM", "value": 1200, "unit": "nM"}]}
{"smiles": "Nc1ccn([C@H]2CC[C@@H](CO)O2)c(=O)n1", "note": "[D-ddC, 2′,3′-dideoxycytidine]", "values": [{"measurement": "EC50", "setting": "BFU-E", "value": 50, "unit": "nM"}, {"measurement": "concentration giving a 2-fold reduction in dye uptake versus untreated cultures", "setting": "Normal Hep G2 cells [2]", "value": "150 to 190", "unit": "µM"}, {"measurement": "EC50", "setting": "CFU-GM", "value": 700, "unit": "nM"}]}
{"smiles": "[N-]=[N+]=N[C@H]1C[C@H](CO)O[C@@H]1n1cc(F)c(N)nc1=O", "note": "[L-2-azido-5-FddC, 1-(2,3-Dideoxy-2-azido-β-L-erythro-pentofuranosyl)-5-fluorocytosine]", "values": [{"measurement": "CC50", "setting": "[3]", "value": "> 200", "unit": "µM"}, {"measurement": "EC50", "setting": "BFU-E", "value": "> 10000", "unit": "nM"}, {"measurement": "EC50", "setting": "HBV; Hepatitis B virus", "value": 0.1, "unit": "µM"}, {"measurement": "EC50", "setting": "CFU-GM", "value": "> 10000", "unit": "nM"}]}
{"smiles": "[N-]=[N+]=NC1C[C@@H](n2cc(F)c(N)nc2=O)O[C@H]1CO", "note": "(stereo partly drawn) [L-3-azido-5-FddC, β-L-(3′-azido)-2′,3′-dideoxy-5-fluorocytidine]", "values": [{"measurement": "CC50", "setting": "[3]", "value": "> 200", "unit": "µM"}, {"measurement": "EC50", "setting": "BFU-E", "value": 10000, "unit": "nM"}, {"measurement": "EC50", "setting": "HBV; Hepatitis B virus, Transfected 2.2.15 cells, HBV DNA replication intermediates (R.I.)", "value": 0.01, "unit": "µM"}, {"measurement": "EC50", "setting": "CFU-GM", "value": 10000, "unit": "nM"}]}
{"smiles": "Cc1cn([C@H]2C[C@H](N=[N+]=[N-])[C@@H](CO)O2)c(=O)[nH]c1=O", "note": "[Zidovudine (AZT), 3′-azido-3′-deoxythymidine]", "values": [{"measurement": "EC50", "setting": "BFU-E", "value": 600, "unit": "nM"}, {"measurement": "EC50", "setting": "CFU-GM", "value": 1900, "unit": "nM"}]}
